Patent US20090042964A1, “AMINO-5-[SUBSTITUTED-4-(DIFLUOROMETHOXY)PHENYL]-5-PHENYLIMIDAZOLONE COMPOUNDS AS BETA-SECRETASE INHIBITORS” (Wyeth, priority 2007, published 2009)
Like-named read-outs stand apart in the source and are kept apart here.

Biological target: human BACE1 (Homo sapiens, UniProt P56817)
Test: Fluorescent kinetic assay, evaluation of BACE1 binding affinity of test compounds
Type: biochemical
Settings: 10 nM human BACE1, 25 μM substrate WABC-6, pH 4.5, room temperature
Method: Concentration is determined by absorbance at 354 nm using an extinction coefficient of 18172 M^-1 cm^-1, the concentration of stock substrate is corrected, and the substrate stock stored in small aliquots in -80° C. […] Determination of Stock Enzyme Concentration: the stock concentration of each enzyme is determined by absorbance at 280 nm using an of 64150 M^-1 cm^-1 for hBACE1 and MuBACE1, 62870 M^-1 cm^-1 for hBACE2 in 6 M Guanidinium Hydrochloride (from Research Organics, Cat. # 5134G-2), pH 6. […] Biochem. 182, 319-326). Dilution and mixing steps: total reaction volume: 100 μL 2× inhibitor dilutions in buffer A (66.7 mM Na-Acetate, pH 4.5, 0.0667% CHAPS) were prepared, 4× enzyme dilution in buffer A (66.7 mM Na-Acetate, pH 4.5, 0.0667% CHAPS) were prepared, 100 μM substrate dilution in 1×PBS was prepared, and 50 μL 2× Inhibitor, 25 μL 100 μM substrate are added to each well of 96-well plate (from DYNEX Technologies, VWR #: 11311-046), immediately followed by 25 μL 4× enzyme (added to the inhibitor and substrate mix), and the fluorescence readings are initiated.

Chain of human BACE1 (P56817 46-501): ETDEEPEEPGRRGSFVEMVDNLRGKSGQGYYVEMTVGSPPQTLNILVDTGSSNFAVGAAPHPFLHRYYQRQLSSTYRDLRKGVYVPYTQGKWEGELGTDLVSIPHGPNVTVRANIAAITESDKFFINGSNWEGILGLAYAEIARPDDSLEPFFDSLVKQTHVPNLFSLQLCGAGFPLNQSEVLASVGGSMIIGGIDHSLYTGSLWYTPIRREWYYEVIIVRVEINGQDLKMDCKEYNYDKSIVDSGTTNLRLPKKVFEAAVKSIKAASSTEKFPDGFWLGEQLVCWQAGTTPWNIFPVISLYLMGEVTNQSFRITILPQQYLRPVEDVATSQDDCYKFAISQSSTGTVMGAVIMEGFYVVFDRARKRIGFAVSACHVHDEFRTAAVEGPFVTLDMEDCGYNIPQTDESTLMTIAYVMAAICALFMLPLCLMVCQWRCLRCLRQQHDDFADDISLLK

IC50 (read-out: BACE1 IC50) [µM]	Structure (SMILES)	other results
< 0.1	Cc1cc([C@]2(c3cccc(C#CCCF)c3)N=C(N)N(C)C2=O)ccc1OC(F)F [Example 206, (5S)-2-amino-5-[4-(difluoromethoxy)-3-methylphenyl]-5-[3-(4-fluorobut-1-yn-1-yl)phenyl]-3-methyl-3,5-dihydro-4H-imidazol-4-one]	
	CN1C(=O)C(c2ccccc2)(c2ccc(OC(F)F)c(C(F)(F)F)c2)N=C1N (centres unmarked) [Example 12, 2-Amino-5-[4-(difluoromethoxy)-3-(trifluoromethyl)phenyl]-3-methyl-5-phenyl-3,5-dihydro-4H-imidazol-4-one]	IC50 (BACE1 IC50 μM): 0.11 to 1 µM
< 0.1	CCC#Cc1cc([C@@]2(c3ccc(OC(F)F)c(C)c3)N=C(N)N(C)C2=O)ccc1F (single isomer, unassigned) [Example 83]	
< 0.1	CN1C(=O)C(c2ccc(F)c(OCC(F)F)c2)(c2ccc(OC(F)F)c(C3CC3)c2)N=C1N (centres unmarked) [Example 123, 2-Amino-5-[3-cyclopropyl-4-(difluoromethoxy)phenyl]-5-[3-(2,2-difluoroethoxy)-4-fluorophenyl]-3-methyl-3,5-dihydro-4H-imidazol-4-one]	
< 0.1	CN1C(=O)C(c2ccc(F)c(C#CCCF)c2)(c2ccc(OC(F)F)c(CCF)c2)N=C1N (centres unmarked) [Example 91, 2-amino-5-[4-(difluoromethoxy)-3-(2-fluoroethyl)phenyl]-5-[4-fluoro-3-(4-fluorobut-1-yn-1-yl)phenyl]-3-methyl-3,5-dihydro-4H-imidazol-4-one]	
	CC(C)c1cc(C2(c3ccccc3)N=C(N)N(C)C2=O)ccc1OC(F)F (centres unmarked) [Example 9, 2-Amino-5-[4-(difluoromethoxy)-3-isopropylphenyl]-3-methyl-5-phenyl-3,5-dihydro-4H-imidazol-4-one]	IC50 (read-out: BACE1 IC50 μM): 0.11 to 1 µM
< 0.1	CCc1cc(C2(c3ccc(F)c(OCCC(F)F)c3)N=C(N)N(C)C2=O)ccc1OC(F)F (centres unmarked) [Example 134, 2-Amino-5-[4-(difluoromethoxy)-3-ethylphenyl]-5-[3-(3,3-difluoropropoxy)-4-fluorophenyl]-3-methyl-3,5-dihydro-4H-imidazol-4-one]	
0.11 to 1	CN1C(=O)C(c2ccc(F)c(O)c2)(c2ccc(OC(F)F)c(Cl)c2)N=C1N (centres unmarked) [Example 95, 2-Amino-5-[3-chloro-4-(difluoromethoxy)phenyl]-5-(4-fluoro-3-hydroxyphenyl)-3-methyl-3,5-dihydro-4H-imidazol-4-one]	
< 0.1	Cc1cc(C2(c3ccc(F)c(OCCCF)c3)N=C(N)N(C)C2=O)ccc1OC(F)F (centres unmarked) [Example 108, 2-Amino-5-[4-(difluoromethoxy)-3-methylphenyl]-5-[4-fluoro-3-(3-fluoropropoxy)phenyl]-3-methyl-3,5-dihydro-4H-imidazol-4-one]	
< 0.1	CN1C(=O)[C@](c2cccc(C#CCCCO)c2)(c2ccc(OC(F)F)c(C3CC3)c2)N=C1N (single isomer, unassigned) [Example 190]	
0.11 to 1	Cc1cc([C@@]2(c3ccc(F)c(OCCCF)c3)N=C(N)N(C)C2=O)ccc1OC(F)F [Example 110, (5S)-2-Amino-5-[4-(difluoromethoxy)-3-methylphenyl]-5-[4-fluoro-3-(3-fluoropropoxy)phenyl]-3-methyl-3,5-dihydro-4H-imidazol-4-one]	
< 0.1	COCC#Cc1cccc(C2(c3ccc(OC(F)F)c(C4CC4)c3)N=C(N)N(C)C2=O)c1 (centres unmarked) [Example 180, 2-amino-4-(3-cyclopropyl-4-(difluoromethoxy)phenyl)-4-(3-(3-methoxyprop-1-ynyl)phenyl)-1-methyl-1H-imidazol-5(4H)-one]	
0.11 to 1	Cc1cc(C2(c3ccc(F)cc3)N=C(N)N(C)C2=O)ccc1OC(F)F (centres unmarked) [Example 3, 2-Amino-4-(4-(difluoromethoxy)-3-methylphenyl)-4-(4-fluorophenyl)-1-methyl-1H-imidazol-5(4H)-one]	
< 0.1	COCC/C=C/c1cc(C2(c3ccc(OC(F)F)c(C)c3)N=C(N)N(C)C2=O)ccc1F (centres unmarked) [Example 60, 2-Amino-5-[4-(difluoromethoxy)-3-methylphenyl]-5-[4-fluoro-3-((E)-4-methoxy-but-1-enyl)phenyl]-3-methyl-3,5-dihydro-4H-imidazol-4-one]	
< 0.1	C/C=C/c1cccc(C2(c3ccc(OC(F)F)c(C)c3)N=C(N)N(C)C2=O)c1 (centres unmarked) [Example 61, 2-Amino-5-[4-(difluoromethoxy)-3-methylphenyl]-3-methyl-5-[((E)-3-prop-1-enyl)phenyl]-3,5-dihydro-4H-imidazol-4-one]	
> 1	CC#Cc1cccc([C@]2(c3ccc(OC(F)F)c(C4CC4)c3)N=C(N)N(C)C2=O)c1 (single isomer, unassigned) [Example 170]	
	COc1cc(C2(c3ccccc3)N=C(N)N(C)C2=O)ccc1OC(F)F (centres unmarked) [Example 15, 2-Amino-5-[4-(difluoromethoxy)-3-methoxyphenyl]-3-methyl-5-phenyl-3,5-dihydro-4H-imidazol-4-one]	IC50 (BACE1 IC50 μM): 0.11 to 1 µM
	C=Cc1cc(C2(c3ccccc3)N=C(N)N(C)C2=O)ccc1OC(F)F (centres unmarked) [Example 11, 2-Amino-5-[4-(difluoromethoxy)-3-vinylphenyl)-3-methyl-5-phenyl-3,5-dihydro-4H-imidazol-4-one]	IC50 (BACE1 IC50 μM): 0.11 to 1 µM
	CN1C(=O)C(c2ccccc2)(c2ccc(OC(F)F)c(C3CC3)c2)N=C1N (centres unmarked) [Example 10, 2-Amino-5-[3-cyclopropyl-4-(difluoromethoxy)phenyl]-3-methyl-5-phenyl-3,5-dihydro-4H-imidazol-4-one]	IC50 (BACE1 IC50 μM): < 0.1 µM
	Cc1cc(C2(c3ccc(F)c(CF)c3)N=C(N)N(C)C2=O)ccc1OC(F)F (centres unmarked) [Example 22, 2-Amino-5-[4-(difluoromethoxy)-3-methylphenyl]-5-[4-fluoro-3-(fluoromethyl)phenyl]-3-methyl-3,5-dihydro-4H-imidazol-4-one]	IC50 (BACE1 IC50 μM): 0.11 to 1 µM
> 1	Cc1cc([C@@]2(c3ccc(F)c(OCCC(F)F)c3)N=C(N)N(C)C2=O)ccc1OC(F)F [Example 131, (5S)-2-Amino-5-[4-(difluoromethoxy)-3-methylphenyl]-5-[3-(3,3-difluoropropoxy)-4-fluorophenyl]-3-methyl-3,5-dihydro-4H-imidazol-4-one]	
< 0.1	CN1C(=O)[C@](c2cccc(C#CC3CC3)c2)(c2ccc(OC(F)F)c(C3CC3)c2)N=C1N (single isomer, unassigned) [Example 177]	
< 0.1	CC(C)c1cc(C2(c3ccc(F)c(C#CC4CC4)c3)N=C(N)N(C)C2=O)ccc1OC(F)F (centres unmarked) [Example 145, 2-Amino-5-[3-(cyclopropylethynyl)-4-fluorophenyl]-5-[4-(difluoromethoxy)-3-isopropylphenyl]-3-methyl-3,5-dihydro-4H-imidazol-4-one]	
> 1	CCCc1cc([C@]2(c3ccccc3)N=C(N)N(C)C2=O)ccc1OC(F)F (single isomer, unassigned) [Example 80]	
< 0.1	CCc1cc(C2(c3ccc(F)c(C#CC4CC4)c3)N=C(N)N(C)C2=O)ccc1OC(F)F (centres unmarked) [Example 146, 2-Amino-5-[3-(cyclopropylethynyl)-4-fluorophenyl]-5-[4-(difluoromethoxy)-3-ethylphenyl]-3-methyl-3,5-dihydro-4H-imidazol-4-one]	
	CN1C(=O)C(c2ccccc2)(c2ccc(OC(F)F)c(F)c2)N=C1N (centres unmarked) [Example 17, 2-Amino-5-[4-(difluoromethoxy)-3-fluorophenyl]-3-methyl-5-phenyl-3,5-dihydro-4H-imidazol-4-one]	IC50 (BACE1 IC50 μM): 0.11 to 1 µM
